What was measured:
[1] = tested on: HIF-regulated vasoactive mediators; assay: mRNA expression in hypoxic D120 hiPSC-derived retinal organoids; format: cell-based, human; conditions: 1% O2, 12 hours
Experimental: To assess the therapeutic potential of 32-134D for diabetic patients, human induced pluripotent stem cell (hiPSC)-derived 3-dimensional (3D) retinal organoids were treated with 32-134D. It has been previously reported that hiPSC-derived 3D retinal organoids cultured under hypoxic conditions (1% O2) behave similar to ischemic human retinal tissue with increased accumulation of both HIF-1α and HIF-2α (J. Zhang et al., J Clin Invest 131 (2021)). By 120 days of differentiation (D120), the inner and outer retinal layers are clearly defined (FIGS. 32A and 32B) and contain the precursors of the major retinal cell types, including outer retina photoreceptors (expressing recoverin), few newly differentiating bipolar cell precursors (lacking expression of recoverin and Pax6), amacrine cells (expressing high levels of Pax6), as well as Müller cells (expressing CRALBP; FIGS. 32C and 32D). […]
Reverse transcription and quantitative real-time PCR: Total RNA was isolated from cultured cells or retinas with PureLink™ RNA Mini Kit (Invitrogen #12183025), and cDNA was prepared with MuLV Reverse Transcriptase (Applied Biosystems). Quantitative real-time PCR was performed with Power SYBR Green PCR Master Mix (Applied Biosystems) and MyiQ Real-Time PCR Detection System (Bio-Rad). […]

OIR mice = assay: OIR mouse model, intraperitoneal dosing; format: in vivo
Experimental: The ability of 32-143D to inhibit ischemia-induced retinal neovascularization was evaluated using the oxygen-induce retinopathy (OIR) model for retinal neovascularization in ischemic retinal diseases, such as retinopathy of prematurity, proliferative diabetic retinopathy, ischemic retinal vein occlusions, or sickle cell retinopathy. Postnatal day 7 (P7) newborn C57BL/6 pups were exposed to hyperoxia (75% O2) for 5 consecutive days before being returned to room air at P12. Beginning at P13, pups were treated with […] IP injections with 32-134D at 20 mg/kg or with vehicle control. 24 hours after the fifth IP injection, at P17, retinal flat mounts were stained with isolectin-B4 to examine the development of retinal neovascularization.
OIR mouse model: OIR experiments were performed as previously described (M. Rodrigues et al., 2013, Diabetes 62, 3863-3873). Briefly, C57BL/6 mice were placed in 75% O2 on P7. On P12, the mice were returned to room air and administered either by IP injection (digoxin and test compound) or by intravitreal injection. Mice with body weight less than 6 g at P17 were excluded from analysis. The data were collected from both males and females and the results combined, as there was no apparent difference between sexes. Representative images for selected time points from a minimum of three independent experiments are shown. Data from 3-8 pups were obtained at each time point.

C57BL/6 mice = assay: Laser CNV model, intraperitoneal dosing; format: in vivo, mouse
Experimental: The laser CNV model for neovascular (wet) age-related macular degeneration was used to assess the efficacy of 32-134D in blocking HIF-regulated gene expression in the eye (FIG. 20A). C57BL/6 mice were treated with laser on day 0. Beginning on day 2, mice were treated with 5 daily intraperitoneal (IP) injections (day 2 to day 6) with 32-134D at 40 mg/kg or with vehicle control. On day 7, choroidal flat mounts were prepared and stained with isolectin-B4 to examine the CNV lesions. The expression of Vegf (FIG. 20B) and Angpt14 (FIG. 20C) mRNA was also measured at day 7 following laser treatment.
C57BL/6 mice were treated with laser on day 0. Beginning on day 2, mice were treated with 5 daily IP injections (day 2 to day 6) with 32-134D at 40 mg/kg or with vehicle control. On day 7, mice were euthanized and choroidal flat mounts were stained with isolectin-B4 to examine the area of CNV lesions.

[2] = daily IP injections 20 mg/kg from P13, P17

Brc1ccc2c(-c3csc(-c4c[nH]c5c(Br)cccc45)n3)c[nH]c2c1 [Compound 32-134D, 4-(6-bromo-1H-indol-3-yl)-2-(7-bromo-1H-indol-3-yl)thiazole]
expression of HIF-regulated vasoactive mediators (Vegf, Angpt14 mRNA) [1]: effectively prevented | area of avascular retina (OIR mice; [2]): not significantly different | retinal neovascularization (OIR mice; [2]): significant decrease in neovascularization | mRNA expression of key HIF-regulated vasoactive mediators (OIR mice; five consecutive (P12-P16) IP injections, 20 mg/kg, P17): marked reduction | HIF-1α and HIF-2α protein accumulation in retina (OIR mice; single IP injection, as little as 20 mg/kg, P13 and P14): reduction | Vegf mRNA in eyes (C57BL/6 mice; 40 mg/kg IP, day 7 after laser): significantly decreased | CNV lesions (C57BL/6 mice; 5 daily IP injections 40 mg/kg, day 7): marked decrease in CNV | Angpt14 mRNA expression in eyes (C57BL/6 mice; 20 or 40 mg/kg IP, day 7 after laser): significantly decreased

Source: patent publication US20250115595A1, “INHIBITORS OF HYPOXIA-INDUCIBLE FACTORS” (The Johns Hopkins University, priority 2021, published 2025)
